Source: PubChem BioAssay (NCI)
Several values for one entry are separate records, joined by “and”; a condition that tells them apart may be missing. Identical values can stand only once.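 Dose response: 5 concentrations. Exposure: 48 h. Format: 96-well plates. Endpoint: linear interpolation; highest concentration if not reached. Abbreviation: GI50, concentration required for 50% inhibition of growth. TGI: concentration producing complete growth inhibition.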

Legend:
Assay in all cases: inhibition of tumour cell growth, NCI panel, 48 h
[1] = tested on: ACHN renal
[2] = tested on: MCF7 breast
[3] = tested on: MDA-MB-435
[4] = tested on: NCI-H226 lung
[5] = tested on: NCI-H460 lung
[6] = tested on: RXF 393 renal
[7] = tested on: SK-MEL-28 melanoma
[8] = tested on: SK-OV-3 ovarian
[9] = tested on: SNB-19 CNS
[10] = tested on: U251 CNS

Row | Structure (SMILES) | TGI [1] [µM] | TGI [2] [µM] | TGI [3] [µM] | TGI [4] [µM] | TGI [5] [µM] | TGI [6] [µM] | TGI [7] [µM] | TGI [8] [µM] | TGI [9] [µM] | TGI [10] [µM] | GI50 [1] | GI50 [2] | GI50 [3] [µM] | GI50 [4] | GI50 [5] | GI50 [6] [µM] | GI50 [7] [µM] | GI50 [8] | GI50 [9] | GI50 [10]
1 | COC(COC(N)=O)C1=C(N2CC2)C(=O)C(C)=C(N2CC2)C1=O (stereo not drawn) | 0.0449 | 1 | 1.42 | 0.299 | 0.115 | 0.256 | 0.484 | 1.8 | 1.75 | 0.698 |  |  |  |  |  |  |  |  |  | 
2 | O=c1c2c(nc3n1CCS3)[nH]c1cc([N+](=O)[O-])ccc12 | > 100 | 30.9 | > 100 | > 100 | > 100 | > 100 | > 100 | > 100 | > 100 | > 100 | > 100 µM | 7.57 µM | > 100 | > 100 µM | > 100 µM | 92.6 | > 100 | > 100 µM | > 100 µM | > 100 µM
3 | CC[C@H](C)[C@H](NC(=O)[C@H]1CCCCN1C)C(=O)N(C)[C@H](C[C@@H](OC(C)=O)c1cccc(C(=O)N[C@@H](Cc2ccccc2)C[C@H](C)C(=O)OC)n1)C(C)C | > 25 | > 25 | 0.00143 | > 25 | > 25 |  |  | > 25 | > 25 | > 25 | 0.00638 µM and 0.013 µM | 0.000334 µM and 0.0025 µM | 0.00028 | 0.456 µM and 0.0514 µM | 0.0038 µM and 0.0025 µM | 0.00316 | 0.00937 | 0.00308 µM and 0.00314 µM | 0.00461 µM and 0.0025 µM | 0.00408 µM and 0.00381 µM
4 | O=C(NCCCCN1CCOCC1)c1cc2ccccc2o1 | > 100 | > 100 | > 100 | > 100 | > 100 | > 100 | > 100 | > 100 | > 100 | > 100 | > 100 µM | > 100 µM | > 100 | > 100 µM | > 100 µM | > 100 | > 100 | > 100 µM | > 100 µM | > 100 µM
5 | COc1cc(/C=C2\CC3C4CC=C5C[C@@H](OC(C)=O)CC[C@]5(C)C4CC[C@]3(C)C2=O)ccc1OCCN1CCCCC1 (stereo partly drawn) | 14.4 | 5.53 | 4.28 | 28.6 | 11.6 | 14.6 | > 100 | 8.5 | 43.3 | 8.26 | 3.64 µM | 2.07 µM | 1.93 | 11.8 µM | 3.02 µM | 2.95 | 3.24 | 2.75 µM | 8.46 µM | 2.41 µM
6 | CCc1cccc(C(C)C)c1NC(=O)C(=O)C1C(=O)Nc2ccccc2S1=O (stereo not drawn) | > 100 | > 100 | > 100 | > 100 | > 100 | > 100 | > 100 | > 100 | > 100 | > 100 |  |  |  |  |  |  |  |  |  | 
7 | CC(=O)O[C@@H]1C2CCC3C(CC[C@@]4(C)C3CC[C@@H]4C(C)N(C)C)[C@@]2(C)CC[C@@H]1NC(=O)C=C(C)C (stereo partly drawn) | 12.8 | 4.38 | 4.26 | 19.6 | 3.31 | 3.21 | 3.27 | 10.3 | 18.7 | 8.61 | 3.56 µM | 1.67 µM | 1.92 | 5.22 µM | 1.67 µM | 1.46 | 1.73 | 3.61 µM | 6.89 µM | 2.22 µM
8 | O=C(CN(/C=C/C(=O)C(F)(F)F)c1ccc(Cl)cc1)c1ccc(Cl)cc1 | 20.7 | 29.8 | 29 | 29.4 | 35.3 | 35.9 | 39.5 | 33.5 | 31.2 | 20.5 | 8.01 µM | 5.15 µM | 7.83 | 14.8 µM | 11.9 µM | 10.2 | 16.6 | 17.9 µM | 11 µM | 7.53 µM
9 | O=c1oc2ccc(I)cc2c(=O)n1-c1ccc(Br)cc1F | 10.7 | 9.22 | 6.42 | 4.39 | 10.6 | 4.39 | 2.03 | 2.97 | > 63.5 | > 37.5 | 0.751 µM | 1.34 µM | 0.938 | 1.27 µM | 0.5 µM | 1.02 | 0.404 | 0.614 µM | 0.434 µM | 0.75 µM
10 | COc1ccc(Nc2nc3cc(N)cc(N)c3nc2-c2ccccc2)cc1 | 43.3 | 28.1 | 30.1 | 98.4 | 89.9 | 24.2 | 30.5 | 97.5 | > 100 | 29.8 | 15.3 µM | 14.9 µM | 16.5 | 23.8 µM | 26.8 µM | 10.9 | 16.8 | 32.8 µM | 33.8 µM | 16.3 µM
11 | COc1ccc(C(=O)C(CN(C)C)CN(C)C)cc1 | 2.93 | 12.3 | 8.58 | 37.6 | 40.1 | 3.8 | 27.3 | 59.5 | 33.1 | 34.1 | 1.56 µM | 2.73 µM | 2.84 | 16.9 µM | 19.2 µM | 1.55 | 12.6 | 20.2 µM | 16.3 µM | 14.2 µM
12 | CCc1ccc(Oc2c(-c3ccc(OCc4ccc(Cl)cc4)cc3O)n[nH]c2C(F)(F)F)cc1 | 4 | 5.65 | 3.49 | 5.26 | 4.1 | 3.16 | 3.37 | 7.01 | 4.21 | 3.22 | 1.89 µM | 2 µM | 1.8 | 2.11 µM | 2.05 µM | 1.65 | 1.82 | 2.43 µM | 1.98 µM | 1.79 µM
13 | Cc1nc([N+](=O)[O-])cn1-c1nc2ccccn2c1[N+](=O)[O-] | > 100 | > 100 | > 100 | > 100 | > 100 | 44.5 | > 100 | > 100 | > 100 | > 100 |  |  |  |  |  |  |  |  |  | 
14 | CNC(=O)c1c(C)oc2cc(Oc3ncnc4cc(OC)c(OC)cc34)ccc12 | > 100 | > 100 | > 100 | > 100 | > 100 | 2.63 | > 100 | > 100 | > 100 | > 100 | > 100 µM | > 100 µM | > 100 | 2.47 µM | > 100 µM | 0.235 | > 100 | > 100 µM | > 100 µM | 5.51 µM
15 | O=C(O)CCNCC(=O)O | > 100 | > 100 | > 100 | > 100 | > 100 | > 100 | > 100 | > 100 | > 100 | > 100 |  |  |  |  |  |  |  |  |  | 
16 | COc1ccc(/C=C\c2cc(OC)c(OC)c(OC)c2)cc1OCC(=O)Nc1nc2ccc(F)cc2s1 | > 100 | > 100 | > 100 | > 100 | > 100 | > 100 | > 100 | > 100 | > 100 | > 100 | 3.33 µM | 2.3 µM | 0.335 | 5.6 µM | 4.31 µM | 6.29 | > 100 | 8 µM | > 100 µM | 4.33 µM
17 | O=C1Nc2c(ccc(Cl)c2Cl)/C1=C/c1cc(Br)c(O)c(Br)c1 | > 86.4 | > 71.9 | 5.82 | 60.4 | 16.9 | 35.2 | > 100 | 30.4 | > 63.3 | 43.1 | 9.86 µM | 3.4 µM | 2.02 | 11.5 µM | 3.13 µM | 7.32 | 7.07 | 4.88 µM | 4.6 µM | 6.42 µM
